From US7674609B2, “Culture of Crypthecodinium cohnii and microorganisms derived therefrom” (The University of Hull, priority 2001, dated 2010)

Legend:
Format in all cases: cell-based
[1] = test system: Crypthecodinium cohnii ATCC 30772; assay: Culture of C. cohnii in acetic acid pH-stat fermenter with propionic acid in the medium (Example 1); settings: propionic acid 1% v/v
Method: The growth medium used for the first culture contained (initially) propionic acid (1% v/v), sodium acetate (8 g/L), yeast extract (7.5 g/L) and sea salts (25 g/L). The growth medium used for the second culture was the same but with the propionic acid omitted. Before use, the pH of each growth medium was adjusted to 6.5 by the addition of NaOH and the medium was then autoclaved at 121° C. for 1 hour.
The first and second cultures used the strain of Crypthecodinium cohnii available from the American Type Culture Collection and identified by the number 30772 (C. cohnii ATCC 30772).
The apparatus included a 5 L fermenter 10 of known type. The fermenter 10 was provided with a pH electrode 11 that was positioned in the fermenter 10 for monitoring the pH of the growth medium in the fermenter 10. The pH electrode 11 was connected via a control device 12 to a pump 13. The control device 12 was programmed to cause the pump 13 to pump acetic acid (50% v/v) from a reservoir 14 into the fermenter 10 when the pH electrode 11 detected a pH greater than a predetermined value (in this case pH 6.5 for both the first and second cultures).
If, during the culture, the pH fell below 6.5, the pH was brought back to 6.5 by adding KOH (2M). This was done automatically.
The fermenter 10 was also provided with a thermometer (not shown) and a heater (not shown) arranged to maintain the growth medium (and the C. cohnii 30772) at a desired temperature within the fermenter 10 (in this case 27° C. for both the first and second cultures).
The fermenter 10 was also provided with an aerator (not shown) that was connected to a source of air (not shown) for aerating the growth medium within the fermenter 10. An oxygen sensor (not shown) was positioned for measuring dissolved oxygen concentration in the growth medium within the fermenter 10. A stirrer (not shown) was provided for stirring the growth medium (and the C. cohnii 30772). The oxygen sensor was connected to the stirrer by a control device (not shown) for varying the speed of the stirrer in response to the oxygen concentration detected by the oxygen sensor so as to maintain the oxygen concentration at a desired level. For both the first and second cultures the aerator was set to aerate the culture at a rate of 1 volume of air per volume of culture per minute. The control device connected to the oxygen sensor and the stirrer was set so that the dissolved oxygen concentration was maintained above 30% of air saturation (the initial stirrer speed being 300 rpm).
To start each culture, 3.5 L of the appropriate growth medium was added to the fermenter 10. An inoculum of C. cohnii 30772 in 880 ml medium containing acetic acid/acetate, yeast extract and sea salt was then added to the fermenter (the preparation of the inoculum is described below). The fermenter 10 was then closed and the culture was heated to the desired operating temperature, aerated and stirred as described above.
In both the first and second cultures, the control device 12 caused the pump 13 to pump acetic acid into the fermenter 10 so as to maintain the pH at 6.5. This process, sometimes referred to as pH-stat operation, is described in detail in WO 01/04338. Briefly, it is believed that the Crypthecodinium cohnii metabolises the acetate in the growth medium (either in the form of acetate or acetic acid) as a carbon source. […]
During the first and second cultures, samples of the cultures were taken at time intervals. Each sample was analysed to determine dry cell weight. […]

[2] = test system: Crypthecodinium cohnii (ATCC 30541); assay: Culture of C. cohnii 30541 in acetic acid pH-stat fermenters with propionic acid (Example 3)
Method: The value of including propionic acid in the culture medium was also shown with another strain of Crypthecodinium cohnii (ATCC 30541). This strain was grown on acetic acid in pH-stat fermenters as described in Example 1 with and without the inclusion of propionic acid at 1% of the volume of the initial culture medium. [table]

[3] = test system: Crypthecodinium cohnii 30772; assay: Culture of C. cohnii with glucose as main carbon source with propionic acid in the medium (Example 2); settings: propionic acid 1% v/v, glucose 60 g/L
Method: The growth medium used for the third culture contained (initially) propionic acid (1% v/v), glucose (60 g/L—autoclaved separately), yeast extract (7.5 g/L) and sea salts (25 g). The growth medium used for the fourth culture was the same but with the propionic acid omitted. In each case, the pH was 6.5. The microorganism used was Crypthecodinium cohnii 30772. For each of the third and fourth cultures, the Crypthecodinium cohnii was grown in a 5 L fermenter. The cultures were initiated by inoculating 3.5 L of the appropriate growth medium with 350 ml of a 3 day old shaking-flask culture of Crypthecodinium cohnii. The inoculum for the third culture was prepared using the same growth medium as that used in the third culture (i.e., with propionic acid) and the inoculum for the fourth culture was prepared using the same growth medium as that used in the fourth culture (i.e., without propionic acid). Cultures were aerated at 1 volume of air per volume of culture per minute and the dissolved oxygen concentration was maintained above 30% of air saturation by increasing the stirrer speed as required, from an initial speed of 300 rpm. The growth temperature was 27° C. and the pH was maintained at 6.5 by addition of KOH (2 M) and H2SO4 (1 M).

[4] = first culture, acetic acid pH-stat
[5] = 1% propionic acid versus without
[6] = propionic acid 1%, samples after 140-150 hours growth

## CCC(=O)O [propionic acid]
[1]; [4]
  amount of DHA produced (overall): 6 to 8 g/L
  cellular lipid content: 55-65 % of the dry cell weight
  content of docosahexaenoic acid: 35-40 % of the total lipid
[1]; first culture, after 24 hours
  forms of the microorganism present (cysts / swimmers), microscopic observation: only non-motile cysts were present
[1]; acetic acid/acetate carbon source, later stages of the cultures, FIG. 2
  dry cell weight in the first culture (with propionic acid) relative to the second culture (without propionic acid): approximately double
[2]; [5]
  increase in the amount of docosahexaenoic acid produced in the culture: about 85%
  increase in the dry cell weight produced in the culture: over 60%
[2]; [6]
  Cell dry wt: 75 g/L
  DHA in lipid: 33 % w/w
  Lipid in cells: 20 % w/w
  Total DHA produced: 5 g/L
[3]; FIG. 4
  amount of total lipid produced relative to the fourth culture (without propionic acid): greater than twice
[3]; FIG. 5
  amount of docosahexaenoic acid produced relative to the fourth culture (without propionic acid): greater than twice
[3]; later stages of the culture, FIG. 3
  dry cell weight greater than in the fourth culture (without propionic acid): about 20%
